Results: US11713293B2, “Substituted biaryl sulfonamides and the use thereof” (NovoMedix, LLC, priority 2012, dated 2023)
Where two headings read alike, the source gives them in different places.

Experiments:
[1] = tested on: triple negative breast cancer cell line MDA-MB-468; test: Cell-based IC50 assay, adherent cells, MDA-MB-468; conditions: Homo sapiens, 72 hours, CellTiter 96 Aqueous One, metabolically active cells decreased by 50%
Procedure: (§1) In one embodiment, the IC50s of the compounds provided herein were determined in cell-based assays using adherent cells. In one embodiment, the activity of the compounds provided herein were determined in a cell-based assay using the triple negative breast cancer cell line MDA-MB-468. In one embodiment, the activity of the compounds provided herein were determined in a cell-based assay using the triple negative breast cancer cell line MDA-MB-231. In one embodiment, the activity of the compounds provided herein were determined in a cell-based assay using the triple negative breast cancer cell line 4T1.
(§2) In one embodiment, the cell-based assay may be carried out as provided herein. On day 0, cells were seeded at 20,000 cells per well in 100 μL of media into individual wells of a 96-well tissue culture plate. The next day, compounds were diluted to twice the desired final concentration and added in 100 μL of media for a final volume of 200 μL. Standard solutions for each compound were prepared at 1000× concentration in DMSO. The highest concentration was […]. Serial 1:1 dilutions were made from there for a 6- or 9-point curve (e.g., 20 mM, 10 mM, 5 mM, etc). Compounds were then diluted 1:500 in media, and 100 μL of the resulting solution was added to each well for a final dilution of 1:1000. Each concentration of compound was tested in triplicate. Cells were incubated at 37° C. with 5% CO2. After 72 hours, 20 μL of CellTiter 96 Aqueous One Solution Cell Proliferation Assay (Promega) was added to each well. Cells were placed back in the incubator, and the absorbance at 490 nm was read after 2-3 hours. The concentration of compound that decreased the number of metabolically active cells by 50% was determined and reported as the IC50. “Percent Viability” was determined by subtracting the average background value (media only) and expressed as a ratio to the average value obtained from cells treated with only DMSO.
The IC50s of the compounds provided herein and some reference compounds were determined in cell-based assay using triple negative breast cancer cell line MDA-MB-468.

[2] = tested on: triple negative breast cancer cell line MDA-MB-231; test: Cell-based IC50 assay, adherent cells, MDA-MB-231; conditions: Homo sapiens, 72 hours, CellTiter 96 Aqueous One
Procedure: as §1, §2

[3] = tested on: triple negative breast cancer cell line 4T1; test: Cell-based IC50 assay, adherent cells, 4T1; conditions: 72 hours, CellTiter 96 Aqueous One
Procedure: as §1
In one embodiment, the cell-based assay may be carried out as provided herein. On day 0, cells were seeded at 20,000 cells per well in 100 μL of media into individual wells of a 96-well tissue culture plate. The next day, compounds were diluted to twice the desired final concentration and added in 100 μL of media for a final volume of 200 μL. Standard solutions for each compound were prepared at 1000× concentration in DMSO. The highest concentration was 30 mM. […] Cells were placed back in the incubator, and the absorbance at 490 nm was read after 2-3 hours. […] “Percent Viability” was determined by subtracting the average background value (media only) and expressed as a ratio to the average value obtained from cells treated with only DMSO.

[4] = tested on: m7GpppN-capped luciferase mRNA reporter; test: In vitro HeLa cell extract translation system, translation inhibition; type: biochemical; conditions: at 10 μM
Procedure: In one embodiment, the compounds provided herein were assayed for translation inhibition activity using an in vitro HeLa cell extract translation system with an m7GpppN-capped luciferase mRNA reporter.

[5] = tested on: purified luciferase protein; test: Inhibition of purified luciferase protein (specificity control); type: biochemical; conditions: at 100 μM
cyclin D3 = test: Cyclin D3 levels by Western blot in MDA-MB-231 cells; type: cell-based; conditions: 10 μM, at 18 and 24 h
Procedure: Cyclin D is one of the most commonly overexpressed genes in breast cancer and high levels correlate with poor prognosis. Furthermore, cyclin D overexpression is correlated with triple-negative basal-like tumors. In one embodiment, the effects of a compound provided herein on cyclin D overexpression were evaluated. […] The density ratio of the cyclin D3 band to respective beta-actin band was determined by Western blot analysis and normalized to DMSO (100%).

[6] = tested on: highly structured 5′-UTR HB3 (triple stem loop) reporter; test: Translation of mRNAs with highly structured 5′-UTR versus unstructured
Procedure: Many proteins that drive cancer growth and survival (including the cyclins, c-myc, and Pim-1) have secondary structures in the 5′-UTR of their mRNA that limit the rate of translational initiation. In one embodiment, the effects of a compound provided herein on translation of such mRNAs relative to mRNAs without highly structured 5′-UTRs were evaluated.

MDA-MB-231 breast tumors = test: Tumor growth inhibition in MDA-MB-231 xenograft model for breast cancer; type: in vivo, Mouse/nude
Procedure: In one embodiment, the effects of a compound provided herein on tumor growth in a mouse animal model were evaluated. In specific embodiments, the mouse animal model was the MDA-MB-231 xenograft model for breast cancer. Studies were performed to evaluate the effect of a compound provided herein on the growth of MDA-MB-231 breast tumors in mice. The test system that was used is summarized below:
Animals were housed 10 mice per cage in micro-isolators, with sterile corn cob bedding, food, and water. Mice were acclimated for 3 days and given food and tap water ad libitum. Animals were examined prior to initiation of the study to assure adequate health and suitability. […] During the course of the study, 12-hour light/12-hour dark cycle were maintained. A nominal temperature range of 20-23° C. with a relative humidity between 30% and 70% was maintained. LabDiet 5053-certified PicoLab Rodent Diet and sterile water were provided ad libitum during the study.
Exemplary Protocol: Ten mice per group were inoculated s.c. on the left flank with 5×10^6 MDA-MB-231 cells. When tumors reached a mean volume of approximately 100 mm^3, animals began treatment with a compound provided herein (See Table 5). […] Tumors were evaluated every Monday, Wednesday and Friday, body weights and condition were evaluated on a daily basis. […]
Tumor Measurement: Tumors were monitored daily. If, during a daily evaluation, an animal's tumor appeared to have exceeded 1500 mm^3, the tumor was measured; and animals with tumors greater than 1500 mm^3 and/or that had become necrotic and/or hindered movement were euthanized. Tumors were measured twice weekly by measuring each tumor in 2 dimensions, along the largest dimension (length, L) and perpendicular to this dimension (width, W). Tumor weights were calculated using the standard formula: (L×W^2)/2. The mean tumor weight and standard error of the mean were calculated for each group at each time point. […]
Animal Weight: All animals were weighed twice weekly throughout the study. Group weight change was expressed as a daily group mean weight. […]

[7] = Plasma and tumor concentrations at sacrifice in MDA-MB-231 xenograft mice; type: in vivo, Mouse/nude
Procedure: At study termination, mice still undergoing treatment were given a final dose of compound and sacrificed 2 h later. Average concentrations of compounds in plasma and tumor were determined.

[8] = PK study and oral bioavailability, mouse; type: in vivo; conditions: plasma 0 to 6 h

IC50 [1]: 5 µM
IC50 [2]: 13 µM
IC50 [3]: 15 µM
inhibition of purified luciferase protein [5]: no inhibition
levels in plasma and tumor samples after discontinued treatment ([7]; mice that discontinued treatment on Day 31, at study termination): detectable levels
concentration at 14 days ([7]; nude, mouse, plasma, intraperitoneal, treated until the end: No, none after day 31, sacrificed day 45, read-out: Ave. Plasma Conc.): 50 ± 20 nM
concentration at 2 h ([7]; nude, mouse, plasma, intraperitoneal, treated until the end: Yes, 50/25 mg/kg, sacrificed day 45, 2 h after final dose, read-out: Ave. Plasma Conc.): 2330 ± 270 nM
Ave. Tumor Conc. ([7]; treated until the end: No, none after day 31, sacrificed day 45): 0.07 ± 0.04 μM/g of tumor tissue
Ave. Tumor Conc. ([7]; treated until the end: Yes, 50/25 mg/kg, sacrificed day 45, 2 h after final dose): 1.25 ± 0.09 μM/g of tumor tissue
C0 ([8]; IV 5 mg/kg, read-out: IV Administration (5 mg/kg) C0): 54600 ng/mL
half-life ([8]; IV 5 mg/kg, read-out: IV Administration (5 mg/kg) T½ (converted)): 2.1 h
C0 ([8]; PO 25 mg/kg, read-out: PO Administration (25 mg/kg) C0): 5150 ng/mL
half-life ([8]; PO 25 mg/kg, read-out: PO Administration (25 mg/kg) T½ (converted)): 1.5 h
Structure (SMILES): CC(C)c1cc(C(C)C)c(S(=O)(=O)Nc2cc(C(F)(F)F)cc(C(F)(F)F)c2)c(C(C)C)c1 [Compound 1, N-[3,5-Bis(trifluoromethyl)phenyl]-2,4,6-triisopropyl-benzenesulfonamide]
inhibition of luciferase activity vs. DMSO [4]: 97.4%
cyclin D3 levels (density ratio to beta-actin, normalized to DMSO) (cyclin D3): decrease in cyclin D3 levels
inhibition of highly structured 5′-UTR reporter relative to mRNAs without highly structured 5′-UTRs [6]: preferential inhibition
mean tumor volume at Day 31 (MDA-MB-231 breast tumors; qd IP 50 mg/kg, reduced to 25 mg/kg on day 7, vehicle group 898±260 mm^3): 276±119 mm^3
mean weight gain (MDA-MB-231 breast tumors; qd IP 50/25 mg/kg, Days 1 to 31, vehicle group 4.2%): 0.1%
tumor growth after drug withdrawal (MDA-MB-231 breast tumors; within 10 days of withdrawal, from day 32): tumor growth did not resume
